Where “and” joins values, the source holds several entries; their conditions need not be identical. Identical values can stand only once.
T1: GmPLDα1:StrepII (soybean, UniProt I1KH24 1-809)
T1 construct: GmPLDα1, soybean phospholipase Dα1 (Glyma.07G031100), ORF; In pRSETA (pGM1032); the methods call these proteins (His)6/StrepII-tagged; also called soybean PHOSPHOLIPASE Dα1; source: E. coli, purified (HisTrap HP, Strep-Tactin XT); not shown: StrepII, C-terminal, kept
T1 sequence (looked up): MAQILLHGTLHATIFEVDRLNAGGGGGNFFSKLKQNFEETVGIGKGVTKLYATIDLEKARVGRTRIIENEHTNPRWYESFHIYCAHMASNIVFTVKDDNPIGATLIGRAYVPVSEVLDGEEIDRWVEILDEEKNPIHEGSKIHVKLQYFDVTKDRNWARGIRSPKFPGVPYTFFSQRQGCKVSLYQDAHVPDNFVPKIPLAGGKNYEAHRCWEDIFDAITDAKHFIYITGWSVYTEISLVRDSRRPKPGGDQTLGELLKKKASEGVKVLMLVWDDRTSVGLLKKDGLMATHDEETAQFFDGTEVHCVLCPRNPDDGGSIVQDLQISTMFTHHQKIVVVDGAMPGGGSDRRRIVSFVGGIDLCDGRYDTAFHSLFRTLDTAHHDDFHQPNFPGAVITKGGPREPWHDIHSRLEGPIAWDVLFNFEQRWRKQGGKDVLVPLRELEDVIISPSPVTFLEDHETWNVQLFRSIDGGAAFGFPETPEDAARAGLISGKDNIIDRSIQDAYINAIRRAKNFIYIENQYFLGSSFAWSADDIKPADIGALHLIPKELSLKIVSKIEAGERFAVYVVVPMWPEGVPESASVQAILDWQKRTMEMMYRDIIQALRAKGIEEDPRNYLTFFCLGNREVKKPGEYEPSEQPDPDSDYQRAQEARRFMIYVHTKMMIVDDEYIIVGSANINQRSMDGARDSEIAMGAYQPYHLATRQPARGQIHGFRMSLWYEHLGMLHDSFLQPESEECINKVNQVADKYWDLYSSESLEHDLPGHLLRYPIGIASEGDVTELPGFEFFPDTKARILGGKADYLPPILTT

T2: VLXB:StrepII (soybean, UniProt A0A0R0G554 1-853)
T2 construct: VLXB, soybean vegetative type-1 lipoxygenase homolog (Glyma.15G026500), ORF; In pRSETA (pGM1027); the methods call these proteins (His)6/StrepII-tagged; also called recombinant VLXB:StrepII; source: E. coli, purified (HisTrap HP, Strep-Tactin XT); not shown: StrepII, C-terminal, kept
T2 sequence (looked up): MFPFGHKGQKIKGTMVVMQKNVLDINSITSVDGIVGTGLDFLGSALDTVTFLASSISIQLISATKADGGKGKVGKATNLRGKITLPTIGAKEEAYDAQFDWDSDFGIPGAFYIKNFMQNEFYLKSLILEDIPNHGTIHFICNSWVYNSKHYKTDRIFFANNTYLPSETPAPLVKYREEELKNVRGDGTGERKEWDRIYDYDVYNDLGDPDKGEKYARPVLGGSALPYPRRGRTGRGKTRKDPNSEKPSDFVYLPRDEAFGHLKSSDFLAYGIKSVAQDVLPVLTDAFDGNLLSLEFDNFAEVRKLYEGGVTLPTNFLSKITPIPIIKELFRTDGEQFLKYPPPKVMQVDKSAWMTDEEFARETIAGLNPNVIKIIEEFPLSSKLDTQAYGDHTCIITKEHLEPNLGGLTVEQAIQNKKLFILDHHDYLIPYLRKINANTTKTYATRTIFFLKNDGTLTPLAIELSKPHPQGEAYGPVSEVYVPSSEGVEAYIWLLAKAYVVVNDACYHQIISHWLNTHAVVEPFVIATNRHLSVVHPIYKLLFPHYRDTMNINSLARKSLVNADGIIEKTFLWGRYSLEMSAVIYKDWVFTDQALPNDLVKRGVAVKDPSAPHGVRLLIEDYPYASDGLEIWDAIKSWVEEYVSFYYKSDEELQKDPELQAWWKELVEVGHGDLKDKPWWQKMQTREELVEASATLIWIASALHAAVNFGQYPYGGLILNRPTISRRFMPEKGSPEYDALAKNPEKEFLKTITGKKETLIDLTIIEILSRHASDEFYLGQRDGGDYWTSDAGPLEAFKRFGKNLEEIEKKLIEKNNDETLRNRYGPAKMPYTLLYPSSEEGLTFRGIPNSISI


Tests used:
[1] = test system: GmACBP4.1_33–354 interaction with GmPLDα1:StrepII; experiment: Strep-Tactin pull-down assay with supplemented acyl-CoAs; type: binding, soybean; conditions: acyl-CoA 12.5–100 μM, versus control without acyl-CoA
Description: Figure 6 Specific acyl-CoA species facilitate GmACBP4 interaction with VLXB and GmPLDα1. A, Strep-Tactin pull-down assays. […] (His)6-GmACBP4.1_33–354 were detected in eluates by immunoblotting using anti-ACBP3 antibodies. […] Input lanes represent 1% protein. Arrowheads indicate target bands of 40-kD (His)6-GmACBP4.1_33–354 (apparent: 50 kD). The bound protein fraction was quantified densitometrically. […] B–C, Strep-Tactin pull-down assays with supplemented acyl-CoAs. […] Input lanes represent 5% proteins in (B) or 10% proteins in (C). Arrowheads indicate target bands of 40-kD (His)6-GmACBP4.1_33–354 (apparent: 50kD).
Strep-Tactin pull-down assays were performed using Strep-Tactin XT resins (IBA) following the manufacturer’s instructions. Briefly, 5 μL of resins with/without prebound VLXB:StrepII or GmPLDα1:StrepII (0.5 μM) were agitated with GmACBP4.1_33–354 (0.5 μM) and acyl-CoAs (0, 12.5, 25, 50, and 100 μM) in Buffer W containing 0.1 M Tris–HCl (pH 7), 0.15 M NaCl, 1 mM EDTA and 0.05% (w/v) Triton X-100 at 4°C for 2 h. After three washes in Buffer W, bound proteins were eluted in Buffer W with 50 mM biotin, and analyzed by immunoblotting using anti-ACBP3.1 antibodies.

[2] = test system: GmACBP4.1_33–354 interaction with VLXB:StrepII; experiment: as above; type: binding, soybean
(His)6-GmACBP4.1_33–354 [3] = experiment: Isothermal titration calorimetry of acyl-CoA binding (WT protein); parameters: species or system soybean; conditions: ITC at 25°C; 15 μM protein titrated with 200 μM acyl-CoA; mean ± SD, three experiments; read-out: KD, dissociation constant
Method: ITC was conducted with a MicroCal iTC200 system (GE Healthcare) at 25°C in 10 mM sodium phosphate (pH 7) by 20 injections of 1.8-μL acyl-CoAs (200 μM; Avanti Polar Lipids Inc., Alabaster, AL, USA) into the sample cell with 15 μM purified (His)6-GmACBP4.1. Each injection lasted 4 s at 150-s intervals with a stirring speed of 1,000 rpm. Nonspecific heat effects were estimated and corrected after saturation. The baseline was adjusted, and the data were fitted into a single-site binding model using the Origin version 7.0 software (OriginLab).
Supplemental Table 1. Binding constants and thermodynamic parameters for (His)6-GmACBP4.133–354 interaction with acyl-CoAs. (Supports Figure 5A) […]
Isothermal titration calorimetry analysis was performed by titration of 250 μL of 15 μM (His)6-GmACBP4.133–354 with […]
from three independent experiments. n, stoichiometry (number of ligand sites per protein); KD, dissociation constant; ∆H, enthalpy change; −T∆S, entropy change; ∆G, Gibbs free energy.

AtACBP1 = target: AtACBP1; parameters: method as in Xue et al., 2014; conditions: ref Xue et al., 2014; cited from earlier work
(His)6-GmACBP4.1_33–354 [4] = experiment: Liposome association assay for PA binding; parameters: species or system soybean; conditions: PA:di-16:0-PC liposomes, 0–100% (w/w) PA
(His)6-GmACBP4.1_33–354 [5] = experiment: Protein–lipid overlay assay; type: binding, soybean; conditions: commercial strips and PA-spotted nitrocellulose strips; 0.5 μg mL−1 protein
GmPLDα1:StrepII = target: T1, GmPLDα1:StrepII; experiment: pull-down; Strep-Tactin XT resins with prebound VLXB:StrepII or GmPLDα1:StrepII (0.5 μM) agitated with (His)6-GmACBP4.1(33-354) (0.5 μM) and acyl-CoAs (0, 12.5, 25, 50, 100 μM) in 0.1 M Tris-HCl pH 7, 0.15 M NaCl, 1 mM EDTA, 0.05% Triton X-100 at 4°C for 2 h; eluted with 50 mM biotin; immunoblot with anti-ACBP3.1 antibodies; conditions: both partners purified
VLXB:StrepII [6] = target: T2, VLXB:StrepII; experiment: as above; conditions: both partners purified
VLXB:StrepII [7] = target: T2, VLXB:StrepII; experiment: cell-based or functional assay
[8] = acyl-CoA 12.5–100 μM, versus control without acyl-CoA

Row | Molecule | increase in WT binding with GmPLDα1:StrepII [1] | Kd ((His)6-GmACBP4.1_33–354 [3]) | descending order of affinity to the WT (liposome association) ((His)6-GmACBP4.1_33–354 [4]) | binding on lipid filter strips ((His)6-GmACBP4.1_33–354 [5]) | also measured
1 | CCCCCCCCCCCCCCCC(=O)SCCNC(=O)CCNC(=O)[C@H](O)C(C)(C)COP(=O)(O)OP(=O)(O)OC[C@H]1O[C@@H](n2cnc3c(N)ncnc32)[C@H](O)[C@@H]1OP(=O)(O)O [C16:0-CoA] | up to nine-fold | 800 ± 100 nM |  |  | increase in WT binding with VLXB:StrepII [2, 8]: negligible
2 | CCCCCCCC/C=C\CCCCCCCC(=O)SCCNC(=O)CCNC(=O)[C@H](O)C(C)(C)COP(=O)(O)OP(=O)(O)OC[C@H]1O[C@@H](n2cnc3c(N)ncnc32)[C@H](O)[C@@H]1OP(=O)(O)O [C18:1-CoA] | up to nine-fold | 680 ± 80 nM |  |  | increase in WT binding with VLXB:StrepII [2, 8]: negligible
3 | CC/C=C\C/C=C\C/C=C\CCCCCCCC(=O)SCCNC(=O)CCNC(=O)[C@H](O)C(C)(C)COP(=O)(O)OP(=O)(O)OC[C@H]1O[C@@H](n2cnc3c(N)ncnc32)[C@H](O)[C@@H]1OP(=O)(O)O [C18:3-CoA, linolenoyl-CoA] | did not influence | 1170 nM and 900 to 1200 nM |  |  | Kd (AtACBP1): 400 to 800 nM; increase in WT binding with VLXB:StrepII ([2]; 100 µM acyl-CoA): nine-fold
4 | CCCCCCCCCCCCCC(=O)OC[C@H](COP(=O)(O)O)OC(=O)CCCCCCCCCCCCC [di-14:0-PA] |  |  | di-16:0-PA ≈ di-18:1-PA > di-18:0-PA > di-14:0-PA | lower affinity | 
5 | CCCCCCCCCCCCCCCC(=O)OC[C@H](COP(=O)([O-])OCC[N+](C)(C)C)OC(=O)CCCCCCCCCCCCCCC [di-16:0-phosphatidylcholine] |  |  |  | did not interact | 
6 | CCCCCCCCCCCCCCCCCC(=O)OC[C@H](COP(=O)(O)O)OC(=O)CCCCCCCCCCCCCCCCC [di-18:0-PA] |  |  | di-16:0-PA ≈ di-18:1-PA > di-18:0-PA > di-14:0-PA | lower affinity | 
7 | CCCCCCCCC=CCCCCCCCC(=O)OCC(COP(=O)(O)O)OC(=O)CCCCCCCC=CCCCCCCCC (stereo not drawn) [di-18:1-PA] |  |  | di-16:0-PA ≈ di-18:1-PA > di-18:0-PA > di-14:0-PA |  | 
8 | (His)6-GmACBP4.1_(33–354) (domain or fragment, UniProt I1KAV2 33-354, looked up, In pRSETA (pGM963); also called WT; recombinant GmACBP4.1 without the TM domain; source: E. coli, purified (HisTrap HP, HiTrap Q HP); not shown: (His)6, N-terminal, kept) DDNLTVTRASAAETTATRAEQFEDALKRDDAVSSDARPFEEESVVAEHGSVRIDSDGDYDDDWEGVESTELDEAFSAATAFVAAAAADRLSQKVSSDVQLQLYGLYKIATEGPCSTPQPSPLKMTARAKWQAWQKLGAMPPEDAMQKYIDIVTEIYPTWLDGSSLRNKSGDSGGHGSEAKGPMGPVFSTFVYEEEYGSDSQMEAIHGFAREGDMANLLKCIENGVSMNLKDSEGRTPLHWAVDRGHLNVTELLVGKNADVNAKDNDGQTPLHYAVTCEREAIAEYLVKHNADIYSKDNDGSSPRDICESNWPCMQHVGEEVN |  |  |  |  | fold increase of binding with C16:0/C18:1-CoAs against no acyl-CoA (GmPLDα1:StrepII): ≤ 9 fold; fold increase of binding with 100 µM C18:3-CoA against no acyl-CoA (VLXB:StrepII [6]): 9 fold; fold increase of binding with C18:2-CoA against no acyl-CoA (VLXB:StrepII [6]): ≤ 4 fold; IC50 of in vitro LOX activity of 100 nM VLXB:StrepII after incubation with 0.1-300 nM (His)6-GmACBP4.1(33-354) WT and 10 µM C18:2-CoA (VLXB:StrepII [7]): 8.5 nM; IC50 of in vitro LOX activity of 100 nM VLXB:StrepII after incubation with 0.1-300 nM (His)6-GmACBP4.1(33-354) WT and 10 µM C18:3-CoA (VLXB:StrepII [7]): 5 nM

— paper PMC8894927, “Oxylipin signaling in salt-stressed soybean is modulated by ligand-dependent interaction of Class II acyl-CoA-binding proteins with lipoxygenase” (The Plant Cell, 2021)
